The values that follow come from patent publication US6548552B1 (priority 1997, dated 2003).

Among the test systems are S. aureus; Prevotella bivia; Vaginal Microflora.
Assay type in all cases: cell-based
Experiment [1] concerns TSST-1 production by S. aureus.
The test system of experiment [2] is Peptostreptococcus anaerobius.

Regarding `O=C1O[C@H]([C@@H](O)CO)C(O)=C1O` [Ascorbic acid, ascorbic acid], in the experiment with S. aureus, the “OD540 (Percentage of Control)” value is reported as 104 Percentage of Control and the “Staphylococcal / bacterial growth (inhibition, in words)” value is “does not inhibit Staphylococcal growth”. For the same molecule, in experiment [1], the “effect on bacterial toxin production (in words)” value (from here on “effect”) is reported as “reduced toxin production” and the “reduction of toxin production” value is on record as “up to 40%”. As to `Cn1c(=O)c2c(ncn2C)n(C)c1=O` [Caffeine, caffeine], the “OD540 (Percentage of Control)” value in the experiment with S. aureus was 93 Percentage of Control. In experiment [1], the “effect” value is listed as “reduced toxin production”. On to `N[C@@H](CS)C(=O)O` [Cysteine, cysteine], for which, in the experiment on S. aureus, the “OD540 (Percentage of Control)” value is on record as 105 Percentage of Control. Moreover, the “effect” value in experiment [1] was “reduced toxin production”. In the same order, the values of `CC(=O)N[C@@H](CS)C(=O)O` [N-acetyl cysteine, N-acetylcysteine] are 89 Percentage of Control and “reduced toxin production”. In the case of `CCCCCCCCCCCC(=O)OCCOCCOCCOCCOCCOCCOCCOCCOCCOCCOCCOCCOCCOCCOCCOCCOCCOCCOCCOCCOCC(OCCOCCOCCOCCOCCOCCOCCOCCOCCOCCOCCOCCOCCOCCOCCOCCOCCOCCOCCOCCO)C1OCC(OCCOCCOCCOCCOCCOCCOCCOCCOCCOCCOCCOCCOCCOCCOCCOCCOCCOCCOCCOCCO)C1OCCOCCOCCOCCOCCOCCOCCOCCOCCOCCOCCOCCOCCOCCOCCOCCOCCOCCOCCOCCO` (centres unmarked) [Polysorbate 20], the “growth of P. bivia” value with Prevotella bivia is reported as “suppressed”. Also, the “growth of P. anaerobius” value in experiment [2] is listed as “suppressed”. On to `CCCOC(=O)c1cc(O)c(O)c(O)c1` [Propylgallate, propyl gallate], for which the “OD540 (Percentage of Control)” value in the experiment on S. aureus was 74 Percentage of Control. With `OCC(O)CO` [glycerin], in the experiment with Prevotella bivia, the “growth of P. bivia” value is listed as “inhibited”. Besides, the “growth of the isolates tested” value in the experiment with Vaginal Microflora is “did not effect the growth”. beta-mercaptoethanol: the “OD540 (Percentage of Control)” value with S. aureus is on record as 93 Percentage of Control. On the same count and under the same terms, to delta-tocopherol belongs 112 Percentage of Control; to potassium bisulfite, 91 Percentage of Control.

Turning to sodium bisulfite, the “OD540 (Percentage of Control)” value in the experiment on S. aureus is reported as 64 Percentage of Control. On to thiodipropionic acid, for which, in the experiment on S. aureus, the “OD540 (Percentage of Control)” value is 99 Percentage of Control.
